Results reported in article PMC8050233, “Biased cytochrome P450-mediated metabolism via small-molecule ligands binding P450 oxidoreductase” (Nature Communications, 2021).
Like-named read-outs stand apart in the source and are kept apart here.

What was measured:
human POR [1] = biological target: T1, human POR (Homo sapiens, UniProt A0A9L9PY49); assay: biochemical; set-up: POR proteoliposome reduction of cytochrome c, MTT (absorbance) or resazurin (fluorescence), normalized to DMSO control; conditions: Liposomes=Liposomes, electron acceptor as given
T1 construct: full-length wild type in pET22b, expressed in E. coli BL21(DE3); bacterial membranes reconstituted in DLPC/DLPG liposomes without further purification, or used as microsomes
T1 sequence (A0A9L9PY49 1-680): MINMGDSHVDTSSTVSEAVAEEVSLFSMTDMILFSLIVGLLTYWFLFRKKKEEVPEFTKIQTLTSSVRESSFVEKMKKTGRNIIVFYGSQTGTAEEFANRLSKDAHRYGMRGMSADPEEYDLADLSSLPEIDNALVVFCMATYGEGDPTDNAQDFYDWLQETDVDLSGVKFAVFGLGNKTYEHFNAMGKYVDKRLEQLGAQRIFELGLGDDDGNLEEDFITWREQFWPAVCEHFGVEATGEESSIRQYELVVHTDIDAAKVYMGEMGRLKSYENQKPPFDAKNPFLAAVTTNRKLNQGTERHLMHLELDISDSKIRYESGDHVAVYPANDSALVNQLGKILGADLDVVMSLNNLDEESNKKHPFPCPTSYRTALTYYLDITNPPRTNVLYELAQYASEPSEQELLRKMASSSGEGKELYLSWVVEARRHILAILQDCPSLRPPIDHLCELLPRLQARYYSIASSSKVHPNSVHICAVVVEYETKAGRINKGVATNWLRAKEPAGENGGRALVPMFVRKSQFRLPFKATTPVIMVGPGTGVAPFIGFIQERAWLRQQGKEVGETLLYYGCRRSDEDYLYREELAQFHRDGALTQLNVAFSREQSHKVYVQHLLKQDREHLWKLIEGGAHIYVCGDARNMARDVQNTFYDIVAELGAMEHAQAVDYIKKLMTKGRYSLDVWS
Experimental: (§1) Using Cytc, MTT or RS as electron acceptors the change in absorbance (550 nm for Cytc and 610 nm for MTT) or emission (570 nm excitation, 585 nm emission for RS) was monitored as a function of time. Cytc and RS concentrations were both close to KM of the given electron acceptor, while MTT and NADPH were in excess amounts. Concentrations were 40 μM Cytc, 10 μM RS, 500 μM MTT and 100 μM NADPH unless otherwise stated. POR activity was extracted from the slope of the linear region of each trace. Michaelis–Menten kinetics and IC50 curves were performed under identical conditions using relevant substrate and ligand concentrations. All measurements were repeated at least three times and subsequently normalized to DMSO control measurements. […] Fluorescence intensities of resorufin in the presence of rifampicin were corrected according to a linear calibration curve (see Supplementary Fig. 7). Given that point-mutations in human POR can lead to altered specificity towards CYP isoforms[4],[19], we tested whether small-molecule ligands can bias the specificity of human POR to reduce diverse electron acceptors. […] (MTT)[32] (Fig. 2A). Each of the assays relies on spectral changes of the electron acceptor upon reduction by POR and thus directly reports on POR activity towards reducing the specific redox partner (see Supplementary Methods for details). Being comparative these assays exclude artefacts that may originate from potential FMN loss. […] POR plays an omnipotent role as an electron donor to microsomal CYPs in all eukaryotes and serves as a key metabolic hub in plants as well as humans. To test whether the effect of small-molecule ligand binding to POR is an omnipotent phenomenon underlying the regulation of POR in organisms from different kingdoms, we performed binding assays based on intrinsic fluorescence quenching and dose-response experiments on POR2b from the crop plant Sorghum bicolor (SbPOR2b) in proteoliposomes (Fig. 3A, B, Supplementary Fig. 6 and Supplementary Table 3).

SbPOR2b [2] = biological target: T2, SbPOR2b (Sorghum bicolor, UniProt C5YJG8); assay: cytochrome c reduction, absorbance […] nm, Hill fit; assay type: biochemical
T2 construct: gene CPR; full-length, expressed in E. coli NiCo21(DE3) from pET52b, purified on 2',5'-ADP Sepharose and Q-sepharose, in DLPC/DLPG proteoliposomes; mutant in lipid nanodiscs
T2 sequence (C5YJG8 whole entry): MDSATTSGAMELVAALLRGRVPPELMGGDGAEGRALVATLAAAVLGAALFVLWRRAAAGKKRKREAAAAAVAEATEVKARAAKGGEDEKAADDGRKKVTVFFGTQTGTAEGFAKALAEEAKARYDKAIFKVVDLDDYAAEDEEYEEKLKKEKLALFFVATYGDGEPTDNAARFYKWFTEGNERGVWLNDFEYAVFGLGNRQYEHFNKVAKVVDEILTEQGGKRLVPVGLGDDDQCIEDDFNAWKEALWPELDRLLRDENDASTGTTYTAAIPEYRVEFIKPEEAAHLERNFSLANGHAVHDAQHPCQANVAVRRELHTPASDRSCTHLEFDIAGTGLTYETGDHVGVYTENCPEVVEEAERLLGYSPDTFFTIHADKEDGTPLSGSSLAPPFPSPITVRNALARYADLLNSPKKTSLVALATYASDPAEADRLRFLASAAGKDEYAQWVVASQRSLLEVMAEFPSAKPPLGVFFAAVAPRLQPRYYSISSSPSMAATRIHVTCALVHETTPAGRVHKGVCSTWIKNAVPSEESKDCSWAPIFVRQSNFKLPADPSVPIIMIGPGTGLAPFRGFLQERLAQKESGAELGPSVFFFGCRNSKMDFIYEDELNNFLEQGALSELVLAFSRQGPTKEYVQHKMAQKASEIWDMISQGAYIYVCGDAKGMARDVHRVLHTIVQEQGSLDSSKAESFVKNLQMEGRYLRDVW

SbPOR2b [3] = biological target: T2, SbPOR2b; assay: resazurin reduction, fluorescence, Hill fit; assay type: biochemical
Excerpt: resazurin reduction, fluorescence, Hill fit on SbPOR2b | activity decrease in Cytc reduction and increase in RS reduction

in vitro = conditions: human, nci-h295r cells
Excerpt: We tested the efficiency of the three ligands to elicit a physiological response on steroidogenic CYP activities in cells (Fig. 5A, see Supplementary Methods, Supplementary Fig. 14 and Supplementary Table 4 for all data and number of biological replicates). The 3 tested ligands are not known to interact directly with CYP17, CYP19 or CYP21, albeit rifampicin and [compound left out] are known to interact with liver CYPs like CYP2B6[27] and CYP3A4[28]. Using a human adrenocortical cell line (NCI-H295R) we tested the effect of ligands on CYP17A1 and CYP21A2[59],[60] activities at 10 and 100 μM concentrations (Fig. 5A). Using radiolabeled substrates, we were able to quantify the steroid hormone production of CYP17A1 and CYP21A2 and its remodeling by POR ligands (see Supplementary Methods for details). […]. Rifampicin caused no significant effect on CYP17A1 activity, but reduced CYP21A2 activity at 100 μM (73 ± 4% of control; see Fig. 5A and Supplementary Fig. 14). […]. […]. […] (91 ± 12% of control). Specific inhibition of CY Fig. 5 Biased metabolism: small-molecule ligands bias steroidogenic CYP-activities in human cells and microsomes. A A human adrenocortical cell line (NCI-H295R) was used to assess the effect of small-molecule ligands on steroidogenic CYP17A1 and CYP21A2 hydroxylase activity, and CYP17A1 lyase activity, using radiolabeled substrates (see Supplementary Methods and Supplementary Table 4). Cell viability was assessed based on MTT reduction. […]. The cells display increased MTT reduction indicating increased reductase activity. No significant effects on CYP17A1 activities are observed. [compound left out] causes a significance increase in CYP17A1 lyase and less significant towards 17-OHase and 21A2 activities, while MTT reduction decreases slightly. [compound left out] causes inhibition of both CYP17A1 and CYP21A2 activities. B Abiraterone was used as a control inhibitor of CYP17A1 and CYP21A2 in H295R cells. C The effect of ligands on CYP19A1 activity was assessed on microsomes from a human choriocarcinoma cell line (JEG3). […]. A, C Error bars represent mean ± SD of 3–4 biological replicates normalized to DMSO controls with propagated error. See Supplementary Fig. 14 for raw data and Supplementary Table 4 for exact value of n for each experimental condition. Note, overlapping data points appear shaded. Level of significance is determined by one-way ANOVA and Tukey’s HSD test correcting for multiple comparisons (*p < 0.05; **p < 0.01; ***p < 0.005; see Supplementary Methods for details). Source data are provided as a Source Data file.

human POR [4] = biological target: T1, human POR; assay: cytochrome c reduction, absorbance […] nm; assay type: biochemical; conditions: read-out: % of control at 100 μM
SbPOR2b [5] = biological target: T2, SbPOR2b; assay: cytochrome c reduction, absorbance […] nm, Hill fit; assay type: biochemical; remark: listed apart in the source
SbPOR2b [6] = biological target: T2, SbPOR2b; assay: biochemical; set-up: POR proteoliposome reduction of cytochrome c, MTT (absorbance) or resazurin (fluorescence), normalized to DMSO control; conditions: Liposomes=Liposomes, electron acceptor as given
Experimental: as §1

SbPOR2b [7] = biological target: T2, SbPOR2b; assay: resazurin reduction, fluorescence, Hill fit; assay type: biochemical; remark: listed apart in the source
Excerpt: resazurin reduction, fluorescence, Hill fit on SbPOR2b | while marginally reducing the capacity in the RS assay

[8] = read-out: % of control remaining, Cytochrome C=Cytochrome C
[9] = read-out: % of control remaining, Cytochrome C=MTT
[10] = read-out: % of control remaining, Cytochrome C=Resazurin
[11] = Cytochrome C=Cytochrome C, read-out: % of control remaining
[12] = Cytochrome C=Resazurin, read-out: % of control remaining
[13] = Cytochrome C=MTT, read-out: % of control remaining
[14] = Assay=MTT cell viability, DMSO (v/v %)=1, read-out: % viability

| SMILES | remaining activity at 10 µM (human POR [1]; [8]) [%] | remaining activity at 100 µM (human POR [1]; [8]) [%] | remaining activity at 10 µM (human POR [1]; [9]) [%] | remaining activity at 10 µM (human POR [1]; [10]) [%] | remaining activity at 100 µM (human POR [1]; [10]) [%] | also measured |
| --- | --- | --- | --- | --- | --- | --- |
| CO[C@@]12[C@H](COC(N)=O)C3=C(C(=O)C(C)=C(N)C3=O)N1C[C@@H]1N[C@@H]12 [Mitomycin C] | 101 | – | 110 | 53.7 | – | – |
| CC(=O)CC(c1ccccc1)c1c(O)c2ccccc2oc1=O (centres unmarked) [Warfarin] | 102 | – | 118 | 96.2 | – | – |
| O=P1(N(CCCl)CCCl)NCCCO1 (centres unmarked) [cyclophosphamide] | – | – | – | – | – | IC50 (SbPOR2b [2]): 228 ± 208 µM; EC50 (SbPOR2b [3]): 159 ± 136 µM; viability at 10 µM (in vitro): 87.9%; viability at 100 µM (in vitro): 81.4% |
| N#C[C@@H](O[C@@H]1O[C@H](CO)[C@@H](O)[C@H](O)[C@H]1O)c1ccc(O)cc1 [dhurrin] | – | – | – | – | – | remaining activity at 100 µM (human POR [4]): 48 ± 9%; EC50 (SbPOR2b [5]): 21 ± 12 µM; viability at 10 µM (in vitro): 93.6%; viability at 100 µM (in vitro): 88.1%; remaining activity at 10 µM (SbPOR2b [6]; [11]): 128%; remaining activity at 100 µM (SbPOR2b [6]; [11]): 156%; remaining activity at 100 µM (SbPOR2b [6]; [12]): 236%; remaining activity at 10 µM (human POR [1]; [13]): 87.7%; remaining activity at 100 µM (human POR [1]; [13]): 95.9%; remaining activity at 10 µM (human POR [1]; [12]): 105%; remaining activity at 100 µM (human POR [1]; [12]): 81.7% |
| CO[C@H]1/C=C/O[C@@]2(C)Oc3c(C)c(O)c4c(O)c(c(/C=N/N5CCN(C)CC5)c(O)c4c3C2=O)NC(=O)/C(C)=C\C=C\[C@H](C)[C@H](O)[C@@H](C)[C@@H](O)[C@@H](C)[C@H](OC(C)=O)[C@@H]1C [rifampicin] | 113 | – | 95.7 | 132 | 312 | remaining activity at 100 µM (human POR [4]): 14 ± 5%; IC50 (SbPOR2b [7]): 18 ± 9 µM; EC50 (SbPOR2b [5]): 9 ± 8 µM; viability at 10 µM (in vitro; [14]): 94%; viability at 100 µM (in vitro; [14]): 116%; remaining activity at 10 µM (SbPOR2b [6]; [8]): 140%; remaining activity at 100 µM (SbPOR2b [6]; [8]): 179%; remaining activity at 10 µM (SbPOR2b [6]; [10]): 102%; remaining activity at 100 µM (SbPOR2b [6]; [10]): 85%; remaining activity at 100 µM (human POR [1]; [9]): 122% |

More lines, main results first:

| remaining activity at 10 µM (human POR [1]; [8]) [%] | remaining activity at 100 µM (human POR [1]; [8]) [%] | remaining activity at 10 µM (human POR [1]; [9]) [%] | remaining activity at 10 µM (human POR [1]; [10]) [%] | remaining activity at 100 µM (human POR [1]; [10]) [%] | SMILES | also measured |
| --- | --- | --- | --- | --- | --- | --- |
| 95.6 | 106 | 85.1 | 102 | 102 | CCCCc1oc2ccccc2c1C(=O)c1cc(I)c(OCCN(CC)CC)c(I)c1 [Amiodarone] | – |
| 110 | 117 | 96.9 | 107 | 112 | CN/C(=N\CCSCc1nc[nH]c1C)NC#N [Cimetidine] | – |
| 108 | 118 | 88.4 | 96.9 | 95.9 | CC(C)c1nc(CN(C)C(=O)N[C@H](C(=O)N[C@@H](Cc2ccccc2)C[C@H](O)[C@H](Cc2ccccc2)NC(=O)OCc2cncs2)C(C)C)cs1 [Ritonavir] | – |
